Assay results reported in ChEMBL document CHEMBL2380247, “Synthesis and biological evaluation of novel aliphatic amido-quaternary ammonium salts for anticancer chemotherapy: part II” (2013).
Calls of active or inactive are those of the source. The rule behind the calls is not given here.

Columns and labels:
NCI-H23 [1] = assay: Antiproliferative activity against human NCI-H23 cells by SRB assay; type: functional
MDA-MB-231 [2] = assay: Antiproliferative activity against human MDA-MB-231 cells by SRB assay; type: functional
ACHN [3] = assay: Antiproliferative activity against human ACHN cells by SRB assay; type: functional
[4] = target: Rho-related GTP-binding protein RhoB (Homo sapiens) (UniProt P62745); assay: Transactivation of RhoB in human HeLa cells by luciferase reporter assay; type: cell-based
PC-3 [5] = assay: Antiproliferative activity against human PC3 cells by SRB assay; type: functional
NUGC-3 [6] = assay: Antiproliferative activity against human NUGC3 cells by SRB assay; type: functional
MDA-MB-231 [7] = assay: Antiproliferative activity against human MDA-MB-231 cells at 0.3 uM by SRB assay; type: functional
NCI-H23 [8] = assay: Antiproliferative activity against human NCI-H23 cells at 3 uM by SRB assay; type: functional
PC-3 [9] = assay: Antiproliferative activity against human PC3 cells at 1 uM by SRB assay; type: functional
ACHN [10] = assay: Antiproliferative activity against human ACHN cells at 3 uM by SRB assay; type: functional
NCI-H23 [11] = assay: Antiproliferative activity against human NCI-H23 cells at 0.3 uM by SRB assay; type: functional
NUGC-3 [12] = assay: Antiproliferative activity against human NUGC3 cells at 3 uM by SRB assay; type: functional
PC-3 [13] = assay: Antiproliferative activity against human PC3 cells at 3 uM by SRB assay; type: functional
PC-3 [14] = assay: Antiproliferative activity against human PC3 cells at 0.3 uM by SRB assay; type: functional
PC-3 [15] = assay: Antiproliferative activity against human PC3 cells at 0.1 uM by SRB assay; type: functional
ACHN [16] = assay: Antiproliferative activity against human ACHN cells at 10 uM by SRB assay; type: functional
NUGC-3 [17] = assay: Antiproliferative activity against human NUGC3 cells at 0.3 uM by SRB assay; type: functional
PC-3 [18] = assay: Antiproliferative activity against human PC3 cells at 10 uM by SRB assay; type: functional
HCT-15 [19] = assay: Antiproliferative activity against human HCT15 cells at 3 uM by SRB assay; type: functional
HCT-15 [20] = assay: Antiproliferative activity against human HCT15 cells by SRB assay; type: functional
HCT-15 [21] = assay: Antiproliferative activity against human HCT15 cells at 0.3 uM by SRB assay; type: functional
MDA-MB-231 [22] = assay: Antiproliferative activity against human MDA-MB-231 cells at 10 uM by SRB assay; type: functional
MDA-MB-231 [23] = assay: Antiproliferative activity against human MDA-MB-231 cells at 1 uM by SRB assay; type: functional
NCI-H23 [24] = assay: Antiproliferative activity against human NCI-H23 cells at 1 uM by SRB assay; type: functional
NUGC-3 [25] = assay: Antiproliferative activity against human NUGC3 cells at 1 uM by SRB assay; type: functional
MDA-MB-231 [26] = assay: Antiproliferative activity against human MDA-MB-231 cells at 0.1 uM by SRB assay; type: functional
NCI-H23 [27] = assay: Antiproliferative activity against human NCI-H23 cells at 10 uM by SRB assay; type: functional
NUGC-3 [28] = assay: Antiproliferative activity against human NUGC3 cells at 0.1 uM by SRB assay; type: functional
NCI-H23 [29] = assay: Antiproliferative activity against human NCI-H23 cells at 0.1 uM by SRB assay; type: functional
HCT-15 [30] = assay: Antiproliferative activity against human HCT15 cells at 10 uM by SRB assay; type: functional
ACHN [31] = assay: Antiproliferative activity against human ACHN cells at 1 uM by SRB assay; type: functional
MDA-MB-231 [32] = assay: Antiproliferative activity against human MDA-MB-231 cells at 3 uM by SRB assay; type: functional
ACHN [33] = assay: Antiproliferative activity against human ACHN cells at 0.3 uM by SRB assay; type: functional
ACHN [34] = assay: Antiproliferative activity against human ACHN cells at 0.1 uM by SRB assay; type: functional
HCT-15 [35] = assay: Antiproliferative activity against human HCT15 cells at 0.1 uM by SRB assay; type: functional
NUGC-3 [36] = assay: Antiproliferative activity against human NUGC3 cells at 10 uM by SRB assay; type: functional
HCT-15 [37] = assay: Antiproliferative activity against human HCT15 cells at 1 uM by SRB assay; type: functional

Rho-related GTP-binding protein RhoB (Homo sapiens), sequence (P62745 whole entry): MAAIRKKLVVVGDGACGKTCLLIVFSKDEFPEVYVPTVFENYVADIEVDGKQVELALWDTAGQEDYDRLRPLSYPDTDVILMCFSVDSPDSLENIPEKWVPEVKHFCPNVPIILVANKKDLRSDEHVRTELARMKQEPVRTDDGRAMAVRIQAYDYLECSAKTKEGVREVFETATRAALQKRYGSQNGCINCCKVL

Row | GI50 (NCI-H23 [1]) [µM] | GI50 (MDA-MB-231 [2]) [µM] | GI50 (ACHN [3]) [µM] | Activity [4] | GI50 (PC-3 [5]) [µM] | GI50 (HCT-15 [20]) [µM] | Compound | GI50 (NUGC-3 [6]) [µM] | growth, % of control at 0.3 µM (MDA-MB-231 [7]) [%] | growth, % of control at 3 µM (NCI-H23 [8]) [%] | growth, % of control at 1 µM (PC-3 [9]) [%] | growth, % of control at 3 µM (ACHN [10]) [%] | growth, % of control at 0.3 µM (NCI-H23 [11]) [%] | growth, % of control at 3 µM (NUGC-3 [12]) [%] | growth, % of control at 3 µM (PC-3 [13]) [%] | growth, % of control at 0.3 µM (PC-3 [14]) [%] | growth, % of control at 0.1 µM (PC-3 [15]) [%] | growth, % of control at 10 µM (ACHN [16]) [%] | growth, % of control at 0.3 µM (NUGC-3 [17]) [%] | growth, % of control at 10 µM (PC-3 [18]) [%] | growth, % of control at 3 µM (HCT-15 [19]) [%] | also measured
1 | 0.88 | 0.68 | 0.5 | Active | 0.37 | – | C=CC[N+]1(CC)CCN(C(=O)CCCCCCCCCCCCCCC)CC1 | 0.27 | – | – | – | – | – | – | – | – | – | – | – | – | – | –
2 | 1.34 | 1.54 | 2.6 | Active | 0.44 | > 10 | CCCCCCCCCCCCCCCC(=O)NCC(C)(C)C[N+](C)(C)CC | 0.43 | 99.8 | 43.1 | 38.5 | 58.9 | 101 | 13.8 | 4.52 | 94.2 | 103 | 34.5 | 90.9 | -11.9 | 85.2 | growth, % of control at 0.3 µM (HCT-15 [21]): 103%; growth, % of control at 10 µM (MDA-MB-231 [22]): 18.4%; growth, % of control at 1 µM (MDA-MB-231 [23]): 82.7%; growth, % of control at 1 µM (NCI-H23 [24]): 85.6%; growth, % of control at 1 µM (NUGC-3 [25]): 38.1%; growth, % of control at 0.1 µM (MDA-MB-231 [26]): 94.4%; growth, % of control at 10 µM (NCI-H23 [27]): 3.85%; growth, % of control at 0.1 µM (NUGC-3 [28]): 91.8%; growth, % of control at 0.1 µM (NCI-H23 [29]): 108%; growth, % of control at 10 µM (HCT-15 [30]): 57%; growth, % of control at 1 µM (ACHN [31]): 87.4%; growth, % of control at 3 µM (MDA-MB-231 [32]): 46.6%; growth, % of control at 0.3 µM (ACHN [33]): 92.4%; growth, % of control at 0.1 µM (ACHN [34]): 93.7%; growth, % of control at 0.1 µM (HCT-15 [35]): 107%; growth, % of control at 10 µM (NUGC-3 [36]): 1.32%; growth, % of control at 1 µM (HCT-15 [37]): 99.5%
3 | 0.56 | 1.78 | 1.01 | Active | 0.32 | 1.72 | CCCCCCCCCCCCCC(=O)N(C)CCC[N+](C)(C)C | 0.32 | 98.7 | 8.98 | 32.1 | 41.2 | 99.1 | 23.3 | -1.93 | 87.1 | 86.7 | 21.2 | 70.3 | -4.36 | 62 | growth, % of control at 0.3 µM (HCT-15 [21]): 90.9%; growth, % of control at 10 µM (MDA-MB-231 [22]): 23.8%; growth, % of control at 1 µM (MDA-MB-231 [23]): 88.9%; growth, % of control at 1 µM (NCI-H23 [24]): 61.8%; growth, % of control at 1 µM (NUGC-3 [25]): 35.7%; growth, % of control at 0.1 µM (MDA-MB-231 [26]): 95.2%; growth, % of control at 10 µM (NCI-H23 [27]): -5.73%; growth, % of control at 0.1 µM (NUGC-3 [28]): 85.1%; growth, % of control at 0.1 µM (NCI-H23 [29]): 97.3%; growth, % of control at 10 µM (HCT-15 [30]): 16.5%; growth, % of control at 1 µM (ACHN [31]): 72.4%; growth, % of control at 3 µM (MDA-MB-231 [32]): 54.6%; growth, % of control at 0.3 µM (ACHN [33]): 82.2%; growth, % of control at 0.1 µM (ACHN [34]): 81.1%; growth, % of control at 0.1 µM (HCT-15 [35]): 88%; growth, % of control at 10 µM (NUGC-3 [36]): 13.7%; growth, % of control at 1 µM (HCT-15 [37]): 82.6%
